Test results from PMC5394417, “Investigating the molecular mechanism of positive and negative allosteric modulators in the calcium-sensing receptor dimer” (Scientific Reports, 2017).
Where “and” joins values, the source holds several entries; their conditions need not be identical. Equal entries are not always repeated.

Target: T1, HA-L797A CaSR mutant (Rattus norvegicus, UniProt P48442, L797A)
T1 construct: mGluR5 signal peptide (N); expressed in transfected cells; host or cells: HEK293T
T1 sequence (P48442 20-1079 L797A): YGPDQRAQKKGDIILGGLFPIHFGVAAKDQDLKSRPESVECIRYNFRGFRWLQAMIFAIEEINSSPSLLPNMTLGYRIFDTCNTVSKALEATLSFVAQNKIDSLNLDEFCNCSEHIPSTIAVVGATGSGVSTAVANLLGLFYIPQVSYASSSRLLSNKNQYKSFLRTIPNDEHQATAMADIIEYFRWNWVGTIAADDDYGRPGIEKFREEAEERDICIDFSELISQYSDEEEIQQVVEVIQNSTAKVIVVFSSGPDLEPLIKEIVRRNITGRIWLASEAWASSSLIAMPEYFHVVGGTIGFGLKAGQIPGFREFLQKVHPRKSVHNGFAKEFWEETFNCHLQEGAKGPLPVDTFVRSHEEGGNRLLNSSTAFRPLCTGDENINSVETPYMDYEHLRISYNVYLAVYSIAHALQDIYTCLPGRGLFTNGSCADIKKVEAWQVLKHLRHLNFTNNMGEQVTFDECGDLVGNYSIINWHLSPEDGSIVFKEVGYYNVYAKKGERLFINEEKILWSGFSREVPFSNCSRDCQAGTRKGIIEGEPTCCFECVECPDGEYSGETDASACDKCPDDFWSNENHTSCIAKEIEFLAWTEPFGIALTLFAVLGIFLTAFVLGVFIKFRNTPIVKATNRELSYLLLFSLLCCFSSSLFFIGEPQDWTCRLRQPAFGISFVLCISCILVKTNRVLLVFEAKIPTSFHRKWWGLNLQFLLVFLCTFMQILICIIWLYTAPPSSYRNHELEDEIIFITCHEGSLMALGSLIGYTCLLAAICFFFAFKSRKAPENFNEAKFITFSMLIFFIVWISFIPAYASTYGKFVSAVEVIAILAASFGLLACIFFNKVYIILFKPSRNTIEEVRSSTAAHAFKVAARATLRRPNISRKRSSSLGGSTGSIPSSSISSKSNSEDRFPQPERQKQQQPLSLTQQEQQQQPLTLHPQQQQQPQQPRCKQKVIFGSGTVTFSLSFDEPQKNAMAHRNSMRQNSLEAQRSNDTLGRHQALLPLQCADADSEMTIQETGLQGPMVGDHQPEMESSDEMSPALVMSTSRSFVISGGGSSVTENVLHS
Assay: IP-One assay, HEK293T transiently transfected
Assay type: cell-based

EC50 (Ca^2+ alone): 11.7 mM | Hill coefficient ± S.E.M. (Ca^2+ alone): 3.22 ± 0.71 | pEC50 ± S.E.M. (Ca^2+ alone): 1.94 ± 0.04 | Max ± S.E.M. (normalized to maximum response of WT CaSR): 25% and 25 ± 3.5%
Structure (SMILES): [Ca+2] [Ca^2+]
